Reference: ChEMBL document CHEMBL1130650, “Nitroglycosylated meso-arylporphyrins as photoinhibitors of gram positive bacteria” (1998)
Values after ≈ are worked out from the molar mass of the structure shown. Active and inactive are the calls of the source. The rule behind the calls is not given here. Where a SMILES comes first, the peptide text is derived from it. Bridges are numbered along the chain shown (N, C = ends). [ ]: non-standard residue; d: D form. The star is where a group is joined. NMePhe(4-NMe2) = CN[C@@H](Cc1ccc(N(C)C)cc1)C(=O)O; Pip(4-oxo) = O=C1CCN[C@H](C(=O)O)C1; Picolinoyl(3-OH) = O=C(c1ncccc1O)*; Phg = N[C@H](C(=O)O)c1ccccc1; dAbu = CC[C@@H](N)C(=O)O

Tests used:
Escherichia coli [1] = test: Compound was tested for photoinhibition of Escherichia coli (CIP 548T); Partially resistant; type: functional, organism-based
Staphylococcus aureus [2] = test: Compound was tested for photoinhibition of Staphylococcus aureus(CIP 53156); type: functional, organism-based
Escherichia coli [3] = test: Compound was tested for photoinhibition of Escherichia coli (CIP 548T); Sensitive; type: functional, organism-based
Staphylococcus aureus [4] = test: Compound was tested for photoinhibition of Staphylococcus aureus(CIP 53156); Sensitive; type: functional, organism-based
Staphylococcus aureus [5] = test: Compound was tested for photoinhibition of Staphylococcus aureus(CIP 53156); Partially resistant; type: functional, organism-based
Escherichia coli [6] = test: Compound was tested for photoinhibition of Escherichia coli (CIP 548T); Resistant; type: functional, organism-based
Staphylococcus aureus [7] = test: Compound was tested for antibacterial activity against Staphylococcus aureus CIP 53156; type: functional
Staphylococcus aureus [8] = test: Compound was tested for photoinhibition of Staphylococcus aureus(CIP 53156); […]; type: functional, organism-based

With CC(=O)OCC1=C(C(=O)O)N2C(=O)[C@@H](NC(=O)Cc3cccs3)[C@H]2SC1 the Antibiotic resistance (Escherichia coli [1]) was “Partially resistant” and the Antibiotic resistance (Staphylococcus aureus [2]) was “Partially resistant”.
CN(C)[C@@H]1C(O)=C(C(N)=O)C(=O)[C@@]2(O)C(O)=C3C(=O)c4c(O)cccc4[C@@](C)(O)[C@H]3C[C@@H]12 was tested, and the Antibiotic resistance (Escherichia coli [3]) was “Active” and the Antibiotic resistance (Staphylococcus aureus [4]) was “Active”.
O=C(N[C@H](CO)[C@H](O)c1ccc([N+](=O)[O-])cc1)C(Cl)Cl was tested, and the Antibiotic resistance (Staphylococcus aureus [5]) was “Partially resistant” and the Antibiotic resistance (Escherichia coli [3]) was “Partially resistant”.
With CC1(C)S[C@@H]2[C@H](NC(=O)[C@H](N)c3ccc(O)cc3)C(=O)N2[C@H]1C(=O)O the Antibiotic resistance (Escherichia coli [3]) was “Sensitive”.
CC[C@H]1NC(=O)[C@@H](NC(=O)c2ncccc2O)[C@@H](C)OC(=O)[C@H](c2ccccc2)NC(=O)[C@@H]2CC(=O)CCN2C(=O)[C@H](Cc2ccc(N(C)C)cc2)N(C)C(=O)[C@@H]2CCCN2C1=O ({Picolinoyl(3-OH)}-T[dAbu]P[NMePhe(4-NMe2)][Pip(4-oxo)][Phg]; ester 1-C) was tested, and the Antibiotic resistance (Escherichia coli [6]) was “Resistant”.
In the case of CN[C@H](CC(C)C)C(=O)N[C@H]1C(=O)N[C@@H](CC(N)=O)C(=O)N[C@H]2C(=O)N[C@H]3C(=O)N[C@H](C(=O)N[C@H](C(=O)O)c4cc(O)cc(O)c4-c4cc3ccc4O)[C@H](O)c3ccc(c(Cl)c3)Oc3cc2cc(c3O[C@@H]2O[C@H](CO)[C@@H](O)[C@H](O)[C@H]2O[C@H]2C[C@](C)(N)[C@H](O)[C@H](C)O2)Oc2ccc(cc2Cl)[C@H]1O, the Antibiotic resistance (Staphylococcus aureus [4]) was “Sensitive”.
In the case of CC[C@H]1OC(=O)[C@H](C)[C@@H](O[C@H]2C[C@@](C)(OC)[C@@H](O)[C@H](C)O2)[C@H](C)[C@@H](O[C@@H]2O[C@H](C)C[C@H](N(C)C)[C@H]2O)[C@](C)(O)C[C@@H](C)C(=O)[C@H](C)[C@@H](O)[C@]1(C)O, the Antibiotic resistance (Staphylococcus aureus [4]) was “Partially resistant” and the Antibiotic resistance (Escherichia coli [1]) was “Partially resistant”.
With CC1(C)S[C@@H]2[C@H](NC(=O)Cc3ccccc3)C(=O)N2[C@H]1C(=O)O the Antibiotic resistance (Staphylococcus aureus [4]) was “Sensitive”.
NC[C@H]1O[C@H](O[C@H]2[C@H](O)[C@@H](O[C@H]3O[C@H](CO)[C@@H](O)[C@H](N)[C@H]3O)[C@H](N)C[C@@H]2N)[C@H](O)[C@@H](O)[C@@H]1O was tested, and the Antibiotic resistance (Staphylococcus aureus [4]) was “Sensitive”.
With CN[C@@H]1[C@H](O[C@H]2[C@H](O[C@H]3[C@H](O)[C@@H](O)[C@H](N=C(N)N)[C@@H](O)[C@@H]3N=C(N)N)O[C@@H](C)[C@]2(O)C=O)O[C@@H](CO)[C@H](O)[C@H]1O the Antibiotic resistance (Escherichia coli [3]) was “Sensitive” and the Antibiotic resistance (Staphylococcus aureus [4]) was “Sensitive”.
CO[C@H]1/C=C/O[C@@]2(C)Oc3c(C)c(O)c4c(O)c(c(/C=N/N5CCN(C)CC5)c(O)c4c3C2=O)NC(=O)/C(C)=C\C=C\[C@H](C)[C@H](O)[C@@H](C)[C@@H](O)[C@@H](C)[C@H](OC(C)=O)[C@@H]1C was tested, and the Antibiotic resistance (Escherichia coli [3]) was “Sensitive” and the Antibiotic resistance (Staphylococcus aureus [4]) was “Sensitive”.
With O=[N+]([O-])c1ccc(-c2c3nc(c(-c4ccc(OC[C@H]5O[C@H](O)[C@H](O)[C@@H](O)[C@@H]5O)cc4)c4nc(c(-c5ccc(OC[C@H]6O[C@H](O)[C@H](O)[C@@H](O)[C@@H]6O)cc5)c5ccc([nH]5)c(-c5ccc(OC[C@H]6O[C@H](O)[C@H](O)[C@@H](O)[C@@H]6O)cc5)c5ccc2[nH]5)C=C4)C=C3)cc1 the CI50 (Staphylococcus aureus [7]) was 10 µg/mL (≈ 8.37 µM).
CCn1cc(C(=O)O)c(=O)c2ccc(C)nc21 was tested, and the Antibiotic resistance (Staphylococcus aureus [8]) was “Resistant”.
Nc1ccc(S(N)(=O)=O)cc1 was tested, and the Antibiotic resistance (Escherichia coli [3]) was “Sensitive” and the Antibiotic resistance (Staphylococcus aureus [4]) was “Sensitive”.
